Test results reported in EP4806891A1 (Kangbaida (Sichuan) Biotechnology Co., Ltd., priority 2023, dated 2025).
pIC50: −log10 of the molar value.

Experiments:
HEK-Blue-hTLR7 cells = target: T1, HEK-Blue-hTLR7 cells (Homo sapiens, UniProt Q9NYK1); test: HEK-Blue-hTLR7 cell inhibition assay; type: cell-based; settings: R848 0.8 µM, 16 h, OD 620 nm, read-out: TLR7 IC50
T1 construct: expressed in transfected cells; host or cells: HEK-Blue-hTLR7 cells (HEK293-derived reporter line)
T1 sequence (Q9NYK1 27-1049): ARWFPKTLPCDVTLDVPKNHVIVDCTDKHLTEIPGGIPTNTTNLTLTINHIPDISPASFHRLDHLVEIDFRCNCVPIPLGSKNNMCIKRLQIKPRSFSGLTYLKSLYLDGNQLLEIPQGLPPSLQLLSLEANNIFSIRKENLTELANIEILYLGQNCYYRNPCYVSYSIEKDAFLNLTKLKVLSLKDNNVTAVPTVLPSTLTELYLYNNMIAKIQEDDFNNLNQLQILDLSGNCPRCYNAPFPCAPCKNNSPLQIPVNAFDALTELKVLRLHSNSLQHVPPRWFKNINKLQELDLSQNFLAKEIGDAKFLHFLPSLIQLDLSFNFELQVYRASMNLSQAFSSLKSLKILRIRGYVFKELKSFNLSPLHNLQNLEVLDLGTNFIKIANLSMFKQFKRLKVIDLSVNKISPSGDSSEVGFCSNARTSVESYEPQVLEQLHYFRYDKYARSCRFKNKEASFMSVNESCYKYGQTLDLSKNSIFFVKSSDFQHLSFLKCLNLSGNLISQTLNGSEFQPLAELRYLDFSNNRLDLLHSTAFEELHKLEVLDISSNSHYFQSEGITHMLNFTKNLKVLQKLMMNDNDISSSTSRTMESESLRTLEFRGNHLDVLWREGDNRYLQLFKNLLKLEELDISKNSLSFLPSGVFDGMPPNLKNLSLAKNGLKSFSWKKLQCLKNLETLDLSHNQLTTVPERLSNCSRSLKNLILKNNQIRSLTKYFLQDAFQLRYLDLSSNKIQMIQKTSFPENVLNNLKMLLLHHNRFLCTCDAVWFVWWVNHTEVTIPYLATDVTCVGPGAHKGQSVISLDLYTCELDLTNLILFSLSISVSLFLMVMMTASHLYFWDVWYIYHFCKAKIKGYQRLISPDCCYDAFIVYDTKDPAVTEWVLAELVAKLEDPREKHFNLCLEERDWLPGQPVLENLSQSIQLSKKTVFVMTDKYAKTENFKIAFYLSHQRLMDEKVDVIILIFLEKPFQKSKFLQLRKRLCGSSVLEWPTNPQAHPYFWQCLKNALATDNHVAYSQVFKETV
Protocol: (§1) HEK-Blue-hTLR7/8/9 cell inhibition assay
(§2) 1. HEK-Blue-hTLR7/8 cells (1 × 10^4 cells/well) and HEK-Blue-hTLR9 cells (1.5 × 10^4 cells/well) were seeded in a 384-well cell culture plate, with a volume of 30 µL per well. The plate was incubated at 37°C in a 5% CO2 incubator for 4 h. 2. The compound was prepared with DMSO and diluted in DMEM medium to 10 concentrations (1:3 dilution), with final concentrations of 10000, 3333.3, 1111.1, 370.4, 123.5, 41.2, 13.7, 4.6, 1.5, and 0.5 nM; R848 was prepared with DMSO and diluted in DMEM medium, with final concentrations of 0.8 µM (HEK-Blue-hTLR7) and 3 µM (HEK-Blue-hTLR8); ODN2006 was prepared with endotoxin-free water and diluted in DMEM medium, with a final concentration of 1 µM. 3. Cells treated with DMSO were used as the blank control group, while cells treated solely with Resiquimod (R848) were used as the positive control group for HEK-Blue-hTLR7/8, and cells treated solely with ODN2006 were used as the positive control group for HEK-Blue-hTLR9. Cells treated with the test compound together with R848 or ODN2006 were used as the test group. Two parallel wells were set for each group and were placed at 37°C in a 5% CO2 incubator for incubation. 4. After being incubated for 4 h, the 384-well plate of HEK-Blue-hTLR7/8 was taken out from the incubator, and R848 alone or both R848 and the diluted compound were separately added into each well. The plate was placed at 37°C in a 5% CO2 incubator for incubation for 16 h; the 384-well plate of HEK-Blue-hTLR9 was taken out from the incubator, and ODN2006 alone or both ODN2006 and the diluted compound were added separately to each well. The plate was incubated at 37°C in a 5% CO2 incubator for 16 h. 5. After being incubated for 16 h, the 384-well plate was removed from the incubator and centrifuged at 1000 rpm for 1 minute. The optical density value of each well at 620 nm was measured using a multifunctional microplate reader. 6. The cell inhibition rate was calculated as (1-(OD620 test group-OD620 blank group)/(OD620 positive group-OD620 blank group))×100%, and the half maximal inhibitory concentration (IC50) was calculated through curve fitting. Table 1: Activity of the compounds of the present disclosure in HEK-Blue-hTLR7/8/9 cellular assays

HEK-Blue-hTLR8 cells = target: T2, HEK-Blue-hTLR8 cells (Homo sapiens, UniProt Q9NR97); test: HEK-Blue-hTLR8 cell inhibition assay; type: cell-based; settings: R848 3 µM, 16 h, OD 620 nm, read-out: TLR8 IC50
T2 construct: expressed in transfected cells; host or cells: HEK-Blue-hTLR8 cells (HEK293-derived reporter line)
T2 sequence (Q9NR97 27-1041): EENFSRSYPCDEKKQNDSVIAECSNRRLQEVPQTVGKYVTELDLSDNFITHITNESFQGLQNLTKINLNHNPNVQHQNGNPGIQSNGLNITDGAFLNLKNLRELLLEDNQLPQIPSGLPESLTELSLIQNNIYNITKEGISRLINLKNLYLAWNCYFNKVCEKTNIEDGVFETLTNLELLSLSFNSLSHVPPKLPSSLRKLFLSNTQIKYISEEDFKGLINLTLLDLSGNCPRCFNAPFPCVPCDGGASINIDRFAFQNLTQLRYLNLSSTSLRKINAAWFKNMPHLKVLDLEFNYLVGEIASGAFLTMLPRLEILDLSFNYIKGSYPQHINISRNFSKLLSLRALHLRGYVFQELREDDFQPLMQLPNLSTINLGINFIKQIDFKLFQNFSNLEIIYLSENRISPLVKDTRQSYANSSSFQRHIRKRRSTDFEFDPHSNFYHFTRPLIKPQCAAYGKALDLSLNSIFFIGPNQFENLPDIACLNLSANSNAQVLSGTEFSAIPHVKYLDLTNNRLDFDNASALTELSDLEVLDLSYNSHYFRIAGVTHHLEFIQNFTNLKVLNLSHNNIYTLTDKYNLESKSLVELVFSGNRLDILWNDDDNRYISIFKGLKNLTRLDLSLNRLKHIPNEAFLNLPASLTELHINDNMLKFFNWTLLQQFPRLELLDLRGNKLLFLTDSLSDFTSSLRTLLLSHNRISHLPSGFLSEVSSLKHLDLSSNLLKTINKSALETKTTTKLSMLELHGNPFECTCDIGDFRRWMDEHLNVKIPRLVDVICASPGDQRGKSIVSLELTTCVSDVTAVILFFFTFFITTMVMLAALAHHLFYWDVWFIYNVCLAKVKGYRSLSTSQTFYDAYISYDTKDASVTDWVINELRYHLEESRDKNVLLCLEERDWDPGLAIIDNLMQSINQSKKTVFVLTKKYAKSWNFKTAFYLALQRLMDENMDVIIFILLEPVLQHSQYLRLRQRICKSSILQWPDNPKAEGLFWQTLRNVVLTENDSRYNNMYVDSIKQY
Protocol: as §1, §2

| Structure (SMILES) | pIC50 (HEK-Blue-hTLR7 cells) | pIC50 (HEK-Blue-hTLR8 cells) |
| --- | --- | --- |
| CCc1nc2c(C#N)ccc(N3C[C@]4(c5nnc(C6CCN(C)CC6)o5)C[C@]4(C(F)(F)F)C3)c2nc1CC [Compound 70, 2,3-diethyl-8-((1S,5R)-1-(5-(1-methylpiperidin-4-yl)-1,3,4-oxadiazol-2-yl)-5-(trifluoromethyl)-3-azabicyclo[3.1.0]hexan-3-yl)quinoxaline-5-carbonitrile] | < 6.00 | < 5.00 |
| CN1CCC(c2nnc([C@]34CN(c5ccc([N+](=O)[O-])c6ncccc56)C[C@@]3(C(F)(F)F)C4)o2)CC1 [Compound 62, 2-(1-methylpiperidin-4-yl)-5-((1S,5R)-3-(8-nitroquinolin-5-yl)-5-(trifluoromethyl)-3-azabicyclo[3.1.0]hexan-1-yl)-1,3,4-oxadiazole] | > 7.00 | > 7.00 |
| CN1CCC(n2cnc([C@]34CN(c5ccc(C#N)n6ncc(F)c56)C[C@@]3(C(F)(F)F)C4)n2)CC1 [Compound 74, 3-fluoro-4-((1S,5R)-1-(1-(1-methylpiperidin-4-yl)-1H-1,2,4-triazol-3-yl)-5-(trifluoromethyl)-3-azabicyclo[3.1.0]hexan-3-yl)pyrazolo[1,5-a]pyridine-7-carbonitrile] | > 7.00 | > 7.00 |
| CN1CCC(c2nnc([C@]34CN(c5ccc(Cl)c6ncccc56)C[C@@]3(C(F)(F)F)C4)o2)CC1 [Compound 67, 2-((1S,5R)-3-(8-chloroquinolin-5-yl)-5-(trifluoromethyl)-3-azabicyclo[3.1.0]hexan-1-yl)-5-(1-methylpiperidin-4-yl)-1,3,4-oxadiazole] | > 7.00 | > 7.00 |
| CN1CCC(c2nnc([C@]34CN(c5ccc(C#N)c6c5ccc(=O)n6C)C[C@@]3(C(F)(F)F)C4)o2)CC1 [Compound 72, 1-methyl-5-((1S,5R)-1-(5-(1-methylpiperidin-4-yl)-1,3,4-oxadiazol-2-yl)-5-(trifluoromethyl)-3-azabicyclo[3.1.0]hexan-3-yl)-2-oxo-1,2-dihydroquinoline-8-carbonitrile] | < 6.00 | > 6.00 |
| N#Cc1ccc(N2C[C@]3(c4nnc(OCCN5CCCC5)o4)C[C@]3(C(F)(F)F)C2)c2cccnc12 [Compound 48, 5-((1S,5R)-1-(5-(2-(pyrrolidin-1-yl)ethoxy)-1,3,4-oxadiazol-2-yl)-5-(trifluoromethyl)-3-azabicyclo[3.1.0]hexan-3-yl)quinoline-8-carbonitrile] | > 7.00 | > 7.00 |
| Cc1ccc(N2C[C@]3(c4nnc(C5CCN(C)CC5)o4)C[C@]3(C(F)(F)F)C2)c2cccnc12 [Compound 65, 2-(1-methylpiperidin-4-yl)-5-((1S,5R)-5-(trifluoromethyl)-3-(8-methylquinolin-5-yl)-3-azabicyclo[3.1.0]hexan-1-yl)-1,3,4-oxadiazole] | > 7.00 | > 7.00 |
| CN1CCC(c2nnc([C@]34CN(c5ccc(F)c6ncccc56)C[C@@]3(C(F)(F)F)C4)o2)CC1 [Compound 69, 2-((1S,5R)-3-(8-fluoroquinolin-5-yl)-5-(trifluoromethyl)-3-azabicyclo[3.1.0]hexan-1-yl)-5-(1-methylpiperidin-4-yl)-1,3,4-oxadiazole] | > 7.00 | > 7.00 |
| CN1CCC(c2nnc([C@]34CN(c5ccc(C#N)c6nc(Cl)ccc56)C[C@@]3(C(F)(F)F)C4)o2)CC1 [Compound 58, 2-chloro-5-((1S,5R)-1-(5-(1-methylpiperidin-4-yl)-1,3,4-oxadiazol-2-yl)-5-(trifluoromethyl)-3-azabicyclo[3.1.0]hexan-3-yl)quinoline-8-carbonitrile] | < 6.00 | < 6.00 |
| COc1ccc2c(N3C[C@]4(c5nnc(C6CCN(C)CC6)o5)C[C@]4(C(F)(F)F)C3)ccc(C#N)c2n1 [Compound 61, 2-methoxy-5-((1S,5R)-1-(5-(1-methylpiperidin-4-yl)-1,3,4-oxadiazol-2-yl)-5-(trifluoromethyl)-3-azabicyclo[3.1.0]hexan-3-yl)quinoline-8-carbonitrile] | < 6.00 | > 6.00 |
| CN1CCC(c2nnc([C@]34CN(c5cnc(C#N)c6ncccc56)C[C@@]3(C(F)(F)F)C4)o2)CC1 [Compound 68, 5-((1S,5R)-1-(5-(1-methylpiperidin-4-yl)-1,3,4-oxadiazol-2-yl)-5-(trifluoromethyl)-3-azabicyclo[3.1.0]hexan-3-yl)-1,7-naphthyridine-8-carbonitrile] | > 7.00 | > 7.00 |
| Cc1ccc2c(N3C[C@]4(c5nnc(C6CCN(C)CC6)o5)C[C@]4(C(F)(F)F)C3)ccc(C#N)c2n1 [Compound 73, 2-methyl-5-((1S,5R)-1-(5-(1-methylpiperidin-4-yl)-1,3,4-oxadiazol-2-yl)-5-(trifluoromethyl)-3-azabicyclo[3.1.0]hexan-3-yl)quinoline-8-carbonitrile] | < 6.00 | < 6.00 |
| CN(C)C12CCC(c3nnc([C@]45CN(c6ccc(C(F)(F)F)c7ncccc67)C[C@@]4(C(F)(F)F)C5)o3)(CC1)CC2 [Compound 82, N,N-dimethyl-4-(5-((1S,5R)-5-(trifluoromethyl)-3-(8-(trifluoromethyl)quinolin-5-yl)-3-azabicyclo[3.1.0]hexan-1-yl)-1,3,4-oxadiazol-2-yl)bicyclo[2.2.2]octan-1-amine] | > 7.00 | > 7.00 |
